Experimental data from PMC12169615, “Fluorescent 4‑Nitrobenzo-2-oxa-1,3-diazole-Coupled Bile Acids as Probe Substrates of Hepatic and Intestinal Bile Acid Transporters of the Solute Carrier Families SLC10 and SLCO” (Journal of Medicinal Chemistry, 2025).
“And” between values parts separate entries of the source, which are not always exact repeats. Equal entries are not always repeated.

Experiments:
mouse mNtcp = target: T1, mouse mNtcp (Mus musculus, UniProt O08705); experiment: Quantitative uptake of 3-NBD-BA in carrier-expressing HEK293 cells (fluorescence reader); type: cell-based; details: mNtcp-HEK293, 25 μM, 37 °C, +Na+ vs -Na+
T1 construct: stably transfected with the full open reading frames of human NTCP, ASBT, SOAT, OATP1B1, and OATP1B3 as well as mouse mNtcp and mAsbt; expressed in transfected cells
T1 sequence (O08705 1-362): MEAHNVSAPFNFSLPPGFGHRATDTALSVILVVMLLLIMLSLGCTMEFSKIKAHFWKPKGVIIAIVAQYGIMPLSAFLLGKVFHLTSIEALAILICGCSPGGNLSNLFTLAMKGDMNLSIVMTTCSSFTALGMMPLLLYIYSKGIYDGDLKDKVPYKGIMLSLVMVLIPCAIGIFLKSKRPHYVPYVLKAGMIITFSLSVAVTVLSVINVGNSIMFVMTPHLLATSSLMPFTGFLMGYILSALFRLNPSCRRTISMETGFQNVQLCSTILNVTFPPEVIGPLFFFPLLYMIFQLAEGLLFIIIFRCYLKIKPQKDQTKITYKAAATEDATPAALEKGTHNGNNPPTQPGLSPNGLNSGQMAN
Description: (§1) For quantification of the transport activity of the synthesized NBD-BA, all cell lines were seeded on 96 well plates and transport experiments were performed under the same control conditions (-Na^+ control for the SLC10 carriers and nontransfected HEK293 cells for the OATP carriers) as before (Figure ). For each NBD-BA, a substrate concentration of 25 μM was used, and the uptake phase was terminated after 10 min of incubation at 37 °C. […] The transport ratios ranged from 3-fold to 39-fold. In direct comparison, 3α-NBD-TCA (14d) and 3α-NBD-GCA (16d) were transported better than their 3β-analogs 3β-NBD-TCA (14a) and 3β-NBD-GCA (16a), respectively, clearly pointing to a preference for the α-position over the β-position of the 3-NBD-label. In direct comparison between the taurine- or glycine-conjugation of the respective NBD-BA, there was a clear preference for 3α-NBD-GCA (16d) over 3α-NBD-TCA (14d), at least for NTCP and mAsbt, pointing to a favorable substrate recognition for glycine-conjugated NBD-BA.
(§2) 5 Quantitative uptake experiments with the 3-NBD-BA in HEK293 cells stably expressing the human carriers NTCP, ASBT, SOAT, OATP1B1, and OATP1B3, or the mouse carriers mNtcp and mAsbt. For the SLC10 carriers, all transport experiments were performed in the presence (filled bars) and the absence (hatched bars) of sodium. For the OATP carriers, uptake into carrier-expressing cells (filled bars) was compared to uptake into non-carrier-expressing HEK293 cells (hatched bars). All cell lines were incubated at 37 °C for 10 min with the indicated 3-NBD-BA at 25 μM. Then, cells were washed with PBS and subjected to fluorescence detection. The following fluorescent BA were analyzed: 3α-NBD-TCA (14d), 3β-NBD-TCA (14a), 3α-NBD-GCA (16d), 3β-NBD-GCA (16a), 3β-NBD-TCDCA (14b), 3β-NBD-CDCA (6b), 3β-NBD-DCA (6c), 3α-NBD-CA (6d), and 3β-NBD-CA (6a). Data represent means ± SD of triplicate determinations of representative experiments. […] RFU, relative fluorescence units. TEXT PRINTED IN THE PICTURE: 3α-NBD-TCA (14d): NTCP: 9 X; mNtcp: 30 X; ASBT: 2 X; mAsbt: 14 X | 3ß-NBD-TCA (14a): NTCP: 12 X; mNtcp: 20 X; mAsbt: 18 X | 3α-NBD-GCA (16d): NTCP: 27 X; mNtcp: 26 X; ASBT: 3 X; mAsbt: 39 X | 3ß-NBD-GCA (16a): NTCP: 15 X; mNtcp: 14 X; mAsbt: 5 X | 3ß-NBD-TCDCA (14b): NTCP: 5 X; mNtcp: 3 X; mAsbt: 4 X | 3ß-NBD-CDCA (6b): mNtcp: < 2 X; ASBT: < 2 X; mAsbt: < 2 X; OATP1B1: < 2 X; OATP1B3: < 2 X | 3ß-NBD-DCA (6c): mNtcp: < 2 X; ASBT: < 2 X; mAsbt: < 2 X | 3α-NBD-CA (6d): mNtcp: 2 X; mAsbt: 4 X | 3ß-NBD-CA (6a): NTCP: 2 X; mNtcp: 2 X; mAsbt: 2 X DOUBTS OF THE COPYIST ABOUT THIS PICTURE: The picture prints no panel letters, so the chart titles (NTCP, mNtcp, ASBT, mAsbt, OATP1B1, OATP1B3) are written in front of the values as the target. / Substance labels: the sign after '3' is printed like 'ß' and may be meant as 'β'. / The 'ns' marks and significance asterisks were left out as statistics. The SOAT chart prints only 'ns'.

human NTCP = target: T2, human NTCP (Homo sapiens, UniProt Q14973); experiment: as above; type: cell-based; details: NTCP-HEK293, 25 μM, 37 °C, +Na+ vs -Na+
T2 construct: HEK293 cell lines stably transfected with the full open reading frames of human NTCP; expressed in transfected cells
T2 sequence (Q14973 1-349): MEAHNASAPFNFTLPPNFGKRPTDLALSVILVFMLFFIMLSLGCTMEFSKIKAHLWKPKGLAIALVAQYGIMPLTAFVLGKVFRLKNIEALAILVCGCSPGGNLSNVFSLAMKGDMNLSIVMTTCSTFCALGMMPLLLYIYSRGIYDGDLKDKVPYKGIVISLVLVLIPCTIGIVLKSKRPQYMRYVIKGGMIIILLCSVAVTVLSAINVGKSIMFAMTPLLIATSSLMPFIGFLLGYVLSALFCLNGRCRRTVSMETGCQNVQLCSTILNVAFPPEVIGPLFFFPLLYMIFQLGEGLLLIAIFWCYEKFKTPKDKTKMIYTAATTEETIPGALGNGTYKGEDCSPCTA
Description: as §1, §2

C[C@H](CCC(=O)NCCS(=O)(=O)[O-])[C@H]1CC[C@H]2[C@@H]3[C@H](O)C[C@@H]4C[C@@H](Nc5ccc([N+](=O)[O-])c6nonc56)CC[C@]4(C)[C@H]3C[C@H](O)[C@]12C.[Na+] [14a]
Specific transport ratio mNtcp (25µM/10 min uptake) (mouse mNtcp): 20x x-fold | Specific transport ratio NTCP (25µM/10 min uptake) (human NTCP): 12x x-fold

12α-Hydroxy-3β-[(7-nitro-2,1,3-benzoxadiazol-4-yl)amino]-5β-cholan-24-oate [6c]
Specific transport ratio mNtcp (25µM/10 min uptake) (mouse mNtcp): <2x x-fold | Specific transport ratio NTCP (25µM/10 min uptake) (human NTCP): ns

C[C@H](CCC(=O)O)[C@H]1CC[C@H]2[C@@H]3[C@H](O)C[C@@H]4C[C@H](Nc5ccc([N+](=O)[O-])c6nonc56)CC[C@]4(C)[C@H]3C[C@H](O)[C@]12C [6d, 7α,12α-Dihydroxy-3α-[(7-nitro-2,1,3-benzoxadiazol-4-yl)amino]-5β-cholan-24-oate]
Specific transport ratio mNtcp (25µM/10 min uptake) (mouse mNtcp): 2 x-fold and 2x x-fold | Specific transport ratio NTCP (25µM/10 min uptake) (human NTCP): ns

C[C@H](CCC(=O)NCC(=O)O)[C@H]1CC[C@H]2[C@@H]3[C@H](O)C[C@@H]4C[C@@H](Nc5ccc([N+](=O)[O-])c6nonc56)CC[C@]4(C)[C@H]3C[C@H](O)[C@]12C [16a]
Specific transport ratio mNtcp (25µM/10 min uptake) (mouse mNtcp): 14x x-fold | Specific transport ratio NTCP (25µM/10 min uptake) (human NTCP): 15x x-fold

C[C@H](CCC(=O)NCC(=O)O)[C@H]1CC[C@H]2[C@@H]3[C@H](O)C[C@@H]4C[C@H](Nc5ccc([N+](=O)[O-])c6nonc56)CC[C@]4(C)[C@H]3C[C@H](O)[C@]12C [16d]
Specific transport ratio mNtcp (25µM/10 min uptake) (mouse mNtcp): 26x x-fold | Specific transport ratio NTCP (25µM/10 min uptake) (human NTCP): 27x x-fold

C[C@H](CCC(=O)NCCS(=O)(=O)[O-])[C@H]1CC[C@H]2[C@@H]3[C@H](O)C[C@@H]4C[C@H](Nc5ccc([N+](=O)[O-])c6nonc56)CC[C@]4(C)[C@H]3C[C@H](O)[C@]12C.[Na+] [14d]
Specific transport ratio mNtcp (25µM/10 min uptake) (mouse mNtcp): 30x x-fold | Specific transport ratio NTCP (25µM/10 min uptake) (human NTCP): 9x x-fold

C[C@H](CCC(=O)O)[C@H]1CC[C@H]2[C@@H]3[C@H](O)C[C@@H]4C[C@@H](Nc5ccc([N+](=O)[O-])c6nonc56)CC[C@]4(C)[C@H]3C[C@H](O)[C@]12C [6a, 7α,12α-Dihydroxy-3β-[(7-nitro-2,1,3-benzoxadiazol-4-yl)amino]-5β-cholan-24-oate]
Specific transport ratio mNtcp (25µM/10 min uptake) (mouse mNtcp): 2 x-fold and 2x x-fold | Specific transport ratio NTCP (25µM/10 min uptake) (human NTCP): 2 x-fold and 2x x-fold

7α-Hydroxy-3β-[(7-nitro-2,1,3-benzoxadiazol-4-yl)amino]-5β-cholan-24-oate [6b]
Specific transport ratio mNtcp (25µM/10 min uptake) (mouse mNtcp): <2x x-fold | Specific transport ratio NTCP (25µM/10 min uptake) (human NTCP): ns
